Source: the supplement of paper PMC10307832

Experiments:
Assay in all cases: relative viability (nuclei count vs DMSO), 5 days (fraction); higher = more cells survive
COR-L 105 = system: COR-L 105
Method in brief: (§1)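 Lung cancer cell lines in 1536-well plates got either a single drug or a fixed anchor-drug dose together with five library-drug doses (not always all listed) in √10 steps, by pin tool, on the day after seeding. Nuclei were counted after 5 days, and relative viability is the treated-to-vehicle ratio of nuclei counts. Values are medians of duplicate plates.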

NCI-H1915 = system: NCI-H1915
Method in brief: as §1

NCI-H650 = system: NCI-H650
Method in brief: as §1

NCI-H2347 = system: NCI-H2347
Method in brief: as §1

NCI-H522 = system: NCI-H522
Method in brief: as §1

ChaGo-K-1 = system: ChaGo-K-1
Method in brief: as §1

LCLC-97TM1 = system: LCLC-97TM1
Method in brief: as §1

NCI-H647 = system: NCI-H647
Method in brief: as §1

EPLC-272H = system: EPLC-272H
Method in brief: as §1

NCI-H520 = system: NCI-H520
Method in brief: as §1

NCI-H322M = system: NCI-H322M
Method in brief: as §1

NCI-H661 = system: NCI-H661
Method in brief: as §1

NCI-H2087 = system: NCI-H2087
Method in brief: as §1

201T = system: 201T
Method in brief: as §1

H3255 = system: H3255
Method in brief: as §1

RERF-LC-KJ = system: RERF-LC-KJ
Method in brief: as §1

PC-14 = system: PC-14
Method in brief: as §1

NCI-H2126 = system: NCI-H2126
Method in brief: as §1

NCI-H23 = system: NCI-H23
Method in brief: as §1

NCI-H1666 = system: NCI-H1666
Method in brief: as §1

HCC-827 = system: HCC-827
Method in brief: as §1

LC-2-ad = system: LC-2-ad
Method in brief: as §1

HCC-78 = system: HCC-78
Method in brief: as §1

NCI-H2405 = system: NCI-H2405
Method in brief: as §1

CC(C)Oc1cc(Nc2nc(N[C@@H](C)c3ccc(F)cn3)ncc2Cl)n[nH]1 [AZ23] + O=C(c1cc(Cc2n[nH]c(=O)c3ccccc23)ccc1F)N1CCN(C(=O)C2CC2)CC1 [Olaparib] (partner 8 µM)
relative viability (COR-L 105; first compound 0.01 µM): 0.609 | relative viability (COR-L 105; first compound 0.03162 µM): 0.819 | relative viability (COR-L 105; first compound 0.3162 µM): 0.665 | relative viability (NCI-H1915; first compound 0.01 µM): 0.259 | relative viability (NCI-H1915; first compound 0.03162 µM): 0.253 | relative viability (NCI-H1915; first compound 0.3162 µM): 0.275 | relative viability (NCI-H650; first compound 0.01 µM): 0.483 | relative viability (NCI-H650; first compound 0.03162 µM): 0.454 | relative viability (NCI-H650; first compound 0.3162 µM): 0.357 | relative viability (NCI-H2347; first compound 0.01 µM): 0.579 | relative viability (NCI-H2347; first compound 0.03162 µM): 0.622 | relative viability (NCI-H2347; first compound 0.3162 µM): 0.604 | relative viability (NCI-H522; first compound 0.01 µM): 0.667 | relative viability (NCI-H522; first compound 0.03162 µM): 0.598 | relative viability (NCI-H522; first compound 0.3162 µM): 0.641 | relative viability (ChaGo-K-1; first compound 0.01 µM): 0.519 | relative viability (ChaGo-K-1; first compound 0.03162 µM): 0.407 | relative viability (ChaGo-K-1; first compound 0.3162 µM): 0.406 | relative viability (LCLC-97TM1; first compound 0.01 µM): 0.299 | relative viability (LCLC-97TM1; first compound 0.03162 µM): 0.526 | relative viability (LCLC-97TM1; first compound 0.3162 µM): 0.416 | relative viability (NCI-H647; first compound 0.01 µM): 0.68 | relative viability (NCI-H647; first compound 0.03162 µM): 0.687 | relative viability (NCI-H647; first compound 0.3162 µM): 0.812 | relative viability (EPLC-272H; first compound 0.03162 µM): 0.563 | relative viability (EPLC-272H; first compound 0.3162 µM): 0.901 | relative viability (NCI-H520; first compound 0.01 µM): 0.346 | relative viability (NCI-H520; first compound 0.03162 µM): 0.328 | relative viability (NCI-H520; first compound 0.3162 µM): 0.312 | relative viability (NCI-H322M; first compound 0.01 µM): 0.564 | relative viability (NCI-H322M; first compound 0.03162 µM): 0.749 | relative viability (NCI-H322M; first compound 0.3162 µM): 0.741 | relative viability (NCI-H661; first compound 0.01 µM): 0.823 | relative viability (NCI-H661; first compound 0.03162 µM): 0.792 | relative viability (NCI-H661; first compound 0.3162 µM): 0.738 | relative viability (NCI-H2087; first compound 0.01 µM): 0.819 | relative viability (NCI-H2087; first compound 0.03162 µM): 0.73 | relative viability (NCI-H2087; first compound 0.3162 µM): 0.642 | relative viability (201T; first compound 0.01 µM): 0.899 | relative viability (201T; first compound 0.03162 µM): 0.872 | relative viability (201T; first compound 0.3162 µM): 0.85 | relative viability (H3255; first compound 0.01 µM): 0.524 | relative viability (H3255; first compound 0.03162 µM): 0.581 | relative viability (H3255; first compound 0.3162 µM): 0.542 | relative viability (RERF-LC-KJ; first compound 0.01 µM): 1.06 | relative viability (RERF-LC-KJ; first compound 0.03162 µM): 0.875 | relative viability (RERF-LC-KJ; first compound 0.3162 µM): 0.917 | relative viability (PC-14; first compound 0.01 µM): 0.189 | relative viability (PC-14; first compound 0.03162 µM): 0.36 | relative viability (PC-14; first compound 0.3162 µM): 0.296 | relative viability (NCI-H2126; first compound 0.01 µM): 0.996 | relative viability (NCI-H2126; first compound 0.03162 µM): 0.924 | relative viability (NCI-H2126; first compound 0.3162 µM): 0.888 | relative viability (NCI-H23; first compound 0.03162 µM): 0.263 | relative viability (NCI-H23; first compound 0.3162 µM): 0.394 | relative viability (NCI-H1666; first compound 0.01 µM): 0.718 | relative viability (NCI-H1666; first compound 0.03162 µM): 0.699 | relative viability (NCI-H1666; first compound 0.3162 µM): 0.759 | relative viability (HCC-827; first compound 0.01 µM): 0.665 | relative viability (HCC-827; first compound 0.03162 µM): 0.764 | relative viability (HCC-827; first compound 0.3162 µM): 0.712 | relative viability (LC-2-ad; first compound 0.01 µM): 0.811 | relative viability (LC-2-ad; first compound 0.03162 µM): 0.772 | relative viability (LC-2-ad; first compound 0.3162 µM): 0.824 | relative viability (HCC-78; first compound 0.01 µM): 0.623 | relative viability (HCC-78; first compound 0.03162 µM): 0.834 | relative viability (HCC-78; first compound 0.3162 µM): 0.669 | relative viability (NCI-H2405; first compound 0.01 µM): 0.855 | relative viability (NCI-H2405; first compound 0.03162 µM): 0.903 | relative viability (NCI-H2405; first compound 0.3162 µM): 0.831
